Assay results published in patent publication US10912741B2, “Prevention of liver cancer with safranal-based formulations” (United Arab Emirates University, priority 2019, dated 2021).
Marks after values point to notes of the source that are not given here.

Key:
Format in all cases: in vivo, albino Wistar rats
[1] = tested on: superoxide dismutase (SOD); experiment: Superoxide dismutase in liver homogenate, DEN/2-AAF hepatocarcinogenesis model; conditions: mean±SEM, 8 rats
Procedure: The experimental hepatocarcinogenesis model was developed according to a protocol by […] et al. that was adapted for our purposes. To initiate and promote hepatocarcinogenesis, diethylnitrosamine (DEN) and 2-acetylaminofluorene (2-AAF) were used, respectively. For hepatocarcinogenesis initiation in this model, a single DEN dose (200 mg/kg b.wt.) dissolved in saline was injected intraperitoneally. After initiation, all rats underwent one period of 5-days fasting, as mitotic proliferative stimuli. To promote hepatocarcinogenesis, 2-acetylaminofluorene (2-AAF) was introduced in the form of six daily intragastric doses (30 mg/kg in 1% Tween 80); two weeks after DEN treatment. […] at doses of 25 mg/kg by weight (b.wt.) and 50 mg/kg b.wt, was administrated orally to rats. These doses have been reported to suppress chemically-induced oxidative damage in rats. A total of 40 adult male albino Wistar rats were randomly divided into […] (n=8) and were subjected to different treatments. Group 1 (control) was orally administered distilled water (5 ml/kg b.wt.) throughout the experimental duration and were injected with a single dose of saline. Group 2 ([…] only) was subjected to a safranal dose (50 mg/kg b.wt.) through oral administration for the duration of the experimental period. Hepatocarcinogenesis was induced by DEN and promoted by 2-AAF, as reported previously, in group 3 (HCC). […] Glutathione (GSH) content was determined by analyzing liver homogenates, according to the method of Van Dooran et al. The assay depends on measuring yellow 5-thiol-2-nitrobenzoate absorbance at 412 nm. Glutathione-S-transferase (GST) activity was determined using the method of Habig et al. GST catalyzes the conjugation of GSH thiol group with 1-Chloro-2,4-dinitrobenzene (CDNB), which can be measured by determining the increase in absorbance at 340 nm. […] CAT decomposes hydrogen peroxide (H2O2) to oxygen and water; therefore, the activity of CAT was evaluated according to by the exponential decomposition of H2O2 at 240 nm. […] UV-160-Shimadzu recording spectrophotometer was used to record absorbances. […]

[2] = tested on: ED-1 (macrophages); experiment: Immunohistochemical staining of liver sections, ED-1 positive cells (macrophages); conditions: mean±SEM, 8 rats
Procedure: (§1) The experimental hepatocarcinogenesis model was developed according to a protocol by Espandiaria et al. that was adapted for our purposes. To initiate and promote hepatocarcinogenesis, diethylnitrosamine (DEN) and 2-acetylaminofluorene (2-AAF) were used, respectively. For hepatocarcinogenesis initiation in this model, a single DEN dose (200 mg/kg b.wt.) dissolved in saline was injected intraperitoneally. After initiation, all rats underwent one period of 5-days fasting, as mitotic proliferative stimuli. To promote hepatocarcinogenesis, 2-acetylaminofluorene (2-AAF) was introduced in the form of six daily intragastric doses (30 mg/kg in 1% Tween 80); two weeks after DEN treatment.
Safranal at doses of 25 mg/kg by weight (b.wt.) and 50 mg/kg b.wt, was administrated orally to rats. These doses have been reported to suppress chemically-induced oxidative damage in rats. A total of 40 adult male albino Wistar rats were randomly divided into […] (n=8) and were subjected to different treatments. Group 1 (control) was orally administered distilled water (5 ml/kg b.wt.) throughout the experimental duration and were injected with a single dose of saline. Group 2 (Safranal only) was subjected to a safranal dose (50 mg/kg b.wt.) through oral administration for the duration of the experimental period. Hepatocarcinogenesis was induced by DEN and promoted by 2-AAF, as reported previously, in group 3 (HCC). Rats in protective groups (groups 4-5) were treated with low/high doses of saffron-based safranal suspensions, at the beginning of promotion periods and continued for 12 weeks. The low dosage treatment with safranal consisted of 25 mg/kg b.wt., and the high dosage treatment consisted of 50 mg/kg b.wt. The experimental design is illustrated in FIG. 1.
For immunohistochemical staining, mounted sections were immersed in sodium citrate buffer (0.1 M, pH 6) and placed in a water bath for 15 minutes to unmask antigen epitopes. […] Ten fields were randomly selected to quantify positive cells, in individual samples (400×). […]

[3] = tested on: NF-kB-p65 nuclear localization; experiment: NF-kB-p65 nuclear localization in nuclear extracts; conditions: animal groups pre-treated with safranal (DEN-exposed)
Text: DEN, 2-AAF, 5, 5′-dithiobis-(2-nitrobenzoic acid thiobarbituric acid, Folin's reagent, pyrogallol, SOD enzyme, H2O2, and bovine albumin were obtained from Sigma Chemical Co. (St. Louis, Mo.). Nf-kB nuclear localization assay kit was purchased from (Ser. No. 10/007,889, Cayman Chemical Company, Ann Arbor, Mich., USA).
as §1
Safranal at doses of 25 mg/kg by weight (b.wt.) and 50 mg/kg b.wt, was administrated orally to rats. These doses have been reported to suppress chemically-induced oxidative damage in rats. A total of 40 adult male albino Wistar rats were randomly divided into […] (n=8) and were subjected to different treatments. […]

[4] = HCC (DEN/2-AAF) rats + safranal high dose 50 mg/kg b.wt. oral, 12 weeks
[5] = HCC (DEN/2-AAF) rats + safranal low dose 25 mg/kg b.wt. oral, 12 weeks
[6] = safranal alone 50 mg/kg b.wt. oral, no DEN (group 2)

Q: With CC1=C(C=O)C(C)(C)CC=C1 [Safranal, 2,6,6-trimethylcyclohexa-1,3-diene-1-carbaldehyde] as the compound, how does the SOD [1, 4] read?
A: Its SOD is 3.96 ± 0.13 unit/mg protein.

Q: And the SOD [1, 5]?
A: Its SOD is 4.02 ± 0.18 unit/mg protein.

Q: What about the SOD [1, 6] of the same compound?
A: Its SOD is 4.05 ± 0.09 unit/mg protein.

Q: And the ED-1 positive cells [2, 4]?
A: The ED-1 positive cells was 49.84 ± 2.28^b positive cells/field.

Q: And the ED-1 positive cells [2, 5]?
A: Its ED-1 positive cells is 59.19 ± 2.0^a&b positive cells/field.

Q: And the ED-1 positive cells [2, 6]?
A: Its ED-1 positive cells is 44.33 ± 1.52 positive cells/field.

Q: What about the “NF-kB-p65 level in nuclear extracts” value [3] of the same compound?
A: Its value is “parallel decrease in NF-kB-p65 level in nuclear extracts”.
